Source: patent US20100273189A1, “NON SEPARATION ASSAYS WITH SELECTIVE SIGNAL INHIBITORS” (BECKMAN COULTER, INC., priority 2009, published 2010)
Several values for one entry are separate records, joined by “and”; a condition that tells them apart may be missing. Equal entries are not always repeated.

How the values were obtained:
HRP = target: T1, HRP (Armoracia rusticana, UniProt P00433); assay: HRP model system on PMMA particles, with and without ascorbic acid; format: biochemical; details: 200 μM Ascorbate; for RLU: replicates
T1 construct: purchased Roche Diagnostics, Indianapolis, Ind., USA
T1 sequence (P00433 31-338 limits assumed): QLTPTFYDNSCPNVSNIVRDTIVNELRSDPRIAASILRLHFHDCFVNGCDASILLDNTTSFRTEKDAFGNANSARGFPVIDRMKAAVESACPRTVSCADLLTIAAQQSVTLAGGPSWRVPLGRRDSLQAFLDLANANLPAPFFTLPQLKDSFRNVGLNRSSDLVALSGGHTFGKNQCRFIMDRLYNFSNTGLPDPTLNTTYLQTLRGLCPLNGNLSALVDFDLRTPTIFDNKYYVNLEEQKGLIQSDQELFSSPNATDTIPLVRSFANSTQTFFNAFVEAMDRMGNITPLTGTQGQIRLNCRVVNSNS
Experimental: In order to further investigate the effect of specific solid phase particles on the assays described herein, a comparison of a variety of particle types was conducted, including silica, polymethylmethacrylate (PMMA). Carboxyl modified PMMA particles (PolyAn GmbH, Berlin) were labeled with AK and biotin as described in Example 3, followed by coating with streptavidin. Silica particles were reacted with 3-aminopropylsiloxane in 1 mM acetic acid to provide an amine reactive group. The amine functional groups were reacted with AK-3 and biotin-LC-sulfoNHS, followed by coating with streptavidin.
Signal generation with Silica and PMMA particles. Assays using the HRP model system, as generally described in Example 1, were conducted on silica particles and PMMA particles, with and without ascorbic acid in the reaction mixture. The assays were run on a modified DxI instrument as described above. The assay conditions consisted of combining 45 μL BUFFER II (with or without ascorbic acid), 25 μL of particle suspension, and 15 μL of sample and incubating for 30 min. Then 100 μL of trigger solution A was added to the reaction vessel and the light intensity was recorded.

beta hCG = assay: Beta hCG assay, AK-Ab1 particle + HRP-Ab2 conjugate; format: biochemical, human; details: ascorbic acid employed
Experimental: This example describes a method of detecting beta-human chorionic gonadotrophin (beta hCG) using an AK-Abl particle prepared as set forth in Example 3 and a HRP-Ab2 conjugate prepared as set forth in Example 4 where Ab2 represents an antibody to beta hCG. This method employed ascorbic acid to decrease background signal.
HRP-Ab2 conjugate suspensions were prepared at 1.0 μg/mL and contained either 0 or 1 mM ascorbic acid. Samples consisted of human serum samples with the indicated mounts of beta hCG added or no beta hCG as a control. The test procedure consisted of adding 20 μL of 1.0 μg/mL HRP-Ab2 conjugate and 30 μL of MES buffer containing 1 mg/mL BSA and 1 mg/mL MIgG, pH 5.9 to the reaction vessel. Next, 25 μL of patient serum sample was added, followed by 25 μL of 10 mg/mL AK-Abl conjugate suspension thereby obtaining 100 μL of total volume in the reaction vessel. After 15.2 minutes, 100 μL of trigger solution A was added to the reaction vessel and the light intensity was recorded on the modified DxI instrument. Chemiluminescence intensity is expressed in Relative Light Units (RLU).

cTnI = assay: Effect of ascorbic acid concentration on cTnI assay using various particles; format: biochemical; details: ascorbic acid 150 μM to 9.4 μM; Dynal M-280, 6 μm CML, LodeStars; in words
Experimental: Effect of ascorbic acid on cTnI assay using various particles. The effect of varying the ascorbic acid concentration in the range 150 μM to 9.4 μM on chemiluminescence was investigated for assays employing Dynal M-280, 6 μm CML, and LodeStars particles.

CK-MB = assay: Effect of trigger pH: CK-MB on LodeStars with ascorbate; format: biochemical
Experimental: B. In order to determine the effect of trigger solution pH on a variety of test assay systems, a series of experiments were conducted varying trigger pH. […] In the tables, two pH values are listed for each data set. The first is the pH of the buffer sample added to the reaction mixture. The second is the resulting pH of the final reaction mix.

[1] = Control (7.0), S1, CK-MB 3200 ng/ml
[2] = Control (7.0), S2, CK-MB 9150 ng/ml
[3] = Control (7.0), S3, CK-MB 26300 ng/ml
[4] = Control (7.0), S4, CK-MB 94600 ng/ml
[5] = Control (7.0), S5, CK-MB 268750 ng/ml
[6] = pH 6.0 (5.9), S1, CK-MB 3200 ng/ml
[7] = pH 6.0 (5.9), S2, CK-MB 9150 ng/ml
[8] = pH 6.0 (5.9), S3, CK-MB 26300 ng/ml
[9] = pH 6.0 (5.9), S4, CK-MB 94600 ng/ml
[10] = pH 6.0 (5.9), S5, CK-MB 268750 ng/ml
[11] = pH 7.0 (6.8), S1, CK-MB 3200 ng/ml
[12] = pH 7.0 (6.8), S2, CK-MB 9150 ng/ml
[13] = pH 7.0 (6.8), S3, CK-MB 26300 ng/ml
[14] = pH 7.0 (6.8), S4, CK-MB 94600 ng/ml
[15] = pH 7.0 (6.8), S5, CK-MB 268750 ng/ml
[16] = pH 8.0 (7.8), S1, CK-MB 3200 ng/ml
[17] = pH 8.0 (7.8), S2, CK-MB 9150 ng/ml
[18] = pH 8.0 (7.8), S3, CK-MB 26300 ng/ml
[19] = pH 8.0 (7.8), S4, CK-MB 94600 ng/ml
[20] = pH 8.0 (7.8), S5, CK-MB 268750 ng/ml
[21] = pH 9.0 (8.6), S1, CK-MB 3200 ng/ml
[22] = pH 9.0 (8.6), S2, CK-MB 9150 ng/ml
[23] = pH 9.0 (8.6), S3, CK-MB 26300 ng/ml
[24] = pH 9.0 (8.6), S4, CK-MB 94600 ng/ml
[25] = pH 9.0 (8.6), S5, CK-MB 268750 ng/ml

In the case of `O=C1O[C@H]([C@@H](O)CO)C(O)=C1O` [Ascorbic Acid, Ascorbic acid], the “Mean RLU” value (HRP; HRP 0 ng/ml) is reported as 20,135 RLU, the S/S0 (HRP; HRP 0 ng/ml) is reported as 1.0 and the RLU (HRP; HRP 0 ng/ml) is reported as 20,656 RLU and 19,436 RLU and 20,312 RLU. The “Mean RLU” value (HRP; HRP 1 ng/ml) was 118,472 RLU, the S/S0 (HRP; HRP 1 ng/ml) was 5.9 and the RLU (HRP; HRP 1 ng/ml) was 116,596 RLU and 116,308 RLU and 122,512 RLU. The “Mean RLU” value (HRP; HRP 10 ng/ml) was 2,061,780 RLU, the S/S0 (HRP; HRP 10 ng/ml) was 102.4 and the RLU (HRP; HRP 10 ng/ml) was 2,066,824 RLU and 2,171,080 RLU and 1,947,436 RLU. For the same compound, the “Mean RLU” value (HRP; HRP 100 ng/ml) was 12,093,261 RLU, the S/S0 (HRP; HRP 100 ng/ml) was 600.6 and the RLU (HRP; HRP 100 ng/ml) was 12,257,256 RLU and 11,862,048 RLU and 12,160,480 RLU. For the same compound, the “Mean RLU” value (HRP; HRP 250 ng/ml) was 12,565,744 RLU, the S/S0 (HRP; HRP 250 ng/ml) was 624.1 and the RLU (HRP; HRP 250 ng/ml) was 12,575,032 RLU and 12,552,012 RLU and 12,570,188 RLU. For the same compound, the RLU (beta hCG; S0, beta hCG 0 IU/mL) was 1,031 RLU, the RLU (beta hCG; S1, beta hCG 4.35 IU/mL) was 7,288 RLU and the S/S0 (beta hCG; S1, beta hCG 4.35 IU/mL) was 7. The RLU (beta hCG; S2, beta hCG 20.81 IU/mL) was 35,320 RLU, the S/S0 (beta hCG; S2, beta hCG 20.81 IU/mL) was 34 and the RLU (beta hCG; S3, beta hCG 127.285 IU/mL) was 298,108 RLU. For the same compound, the S/S0 (beta hCG; S3, beta hCG 127.285 IU/mL) was 289, the RLU (beta hCG; S4, beta hCG 413.455 IU/mL) was 1,293,751 RLU and the S/S0 (beta hCG; S4, beta hCG 413.455 IU/mL) was 1,255. For the same compound, the RLU (beta hCG; S5, beta hCG 775.805 IU/mL) was 2,225,779 RLU, the S/S0 (beta hCG; S5, beta hCG 775.805 IU/mL) was 2,159 and the signal/background (cTnI) was “improved analytical sensitivity by increasing signal/background”. For the same compound, the “Mean RLU” value (CK-MB; Control (7.0), S0, CK-MB 600 ng/ml) was 1,837 RLU, the “Mean RLU” value (CK-MB; [1]) was 7,380 RLU and the S/S0 (CK-MB; [1]) was 4.0. The “Mean RLU” value (CK-MB; [2]) was 22,931 RLU, the S/S0 (CK-MB; [2]) was 12.5 and the “Mean RLU” value (CK-MB; [3]) was 75,857 RLU. The S/S0 (CK-MB; [3]) was 41.3, the “Mean RLU” value (CK-MB; [4]) was 427,483 RLU and the S/S0 (CK-MB; [4]) was 232.7. For the same compound, the “Mean RLU” value (CK-MB; [5]) was 2,055,748 RLU, the S/S0 (CK-MB; [5]) was 1118.9 and the “Mean RLU” value (CK-MB; pH 6.0 (5.9), S0, CK-MB 600 ng/ml) was 693 RLU. The “Mean RLU” value (CK-MB; [6]) was 2,849 RLU, the S/S0 (CK-MB; [6]) was 4.1 and the “Mean RLU” value (CK-MB; [7]) was 6,812 RLU. For the same compound, the S/S0 (CK-MB; [7]) was 9.8, the “Mean RLU” value (CK-MB; [8]) was 28,129 RLU and the S/S0 (CK-MB; [8]) was 40.6. For the same compound, the “Mean RLU” value (CK-MB; [9]) was 119,144 RLU, the S/S0 (CK-MB; [9]) was 171.8 and the “Mean RLU” value (CK-MB; [10]) was 754,177 RLU. The S/S0 (CK-MB; [10]) was 1087.8, the “Mean RLU” value (CK-MB; pH 7.0 (6.8), S0, CK-MB 600 ng/ml) was 1,788 RLU and the “Mean RLU” value (CK-MB; [11]) was 8,409 RLU. For the same compound, the S/S0 (CK-MB; [11]) was 4.7, the “Mean RLU” value (CK-MB; [12]) was 22,669 RLU and the S/S0 (CK-MB; [12]) was 12.7. The “Mean RLU” value (CK-MB; [13]) was 84,704 RLU, the S/S0 (CK-MB; [13]) was 47.4 and the “Mean RLU” value (CK-MB; [14]) was 370,193 RLU. For the same compound, the S/S0 (CK-MB; [14]) was 207.0, the “Mean RLU” value (CK-MB; [15]) was 2,084,173 RLU and the S/S0 (CK-MB; [15]) was 1165.6. For the same compound, the “Mean RLU” value (CK-MB; pH 8.0 (7.8), S0, CK-MB 600 ng/ml) was 3,263 RLU, the “Mean RLU” value (CK-MB; [16]) was 15,725 RLU and the S/S0 (CK-MB; [16]) was 4.8. The “Mean RLU” value (CK-MB; [17]) was 42,805 RLU, the S/S0 (CK-MB; [17]) was 13.1 and the “Mean RLU” value (CK-MB; [18]) was 150,140 RLU. The S/S0 (CK-MB; [18]) was 46.0, the “Mean RLU” value (CK-MB; [19]) was 788,451 RLU and the S/S0 (CK-MB; [19]) was 241.7. The “Mean RLU” value (CK-MB; [20]) was 4,618,668 RLU, the S/S0 (CK-MB; [20]) was 1415.6 and the “Mean RLU” value (CK-MB; pH 9.0 (8.6), S0, CK-MB 600 ng/ml) was 1,512 RLU. For the same compound, the “Mean RLU” value (CK-MB; [21]) was 9,508 RLU, the S/S0 (CK-MB; [21]) was 6.3 and the “Mean RLU” value (CK-MB; [22]) was 28,387 RLU. For the same compound, the S/S0 (CK-MB; [22]) was 18.8, the “Mean RLU” value (CK-MB; [23]) was 74,359 RLU and the S/S0 (CK-MB; [23]) was 49.2. The “Mean RLU” value (CK-MB; [24]) was 561,103 RLU, the S/S0 (CK-MB; [24]) was 371.1 and the “Mean RLU” value (CK-MB; [25]) was 3,286,012 RLU. For the same compound, the S/S0 (CK-MB; [25]) was 2173.3.
